What all share (assay type): functional
Test [1] has as its system Onchocerca lienalis. As to the kind of experiment: MMV: Percent motility assay at a compound concentration of 3.1e-6 M. Activity score legend: 3: Active, 2: Moderately active; 1: Inactive, 0: Toxic. As to conditions: at 3.1 µM.
The test system of test [2] is Onchocerca lienalis. As to the kind of experiment: MMV: Percent motility assay at a compound concentration of 1.9e-7 M. Activity score legend: 3: Active, 2: Moderately active; 1: Inactive, 0: Toxic. As to conditions: at 0.19 µM.
Test [3] has as its system Onchocerca lienalis. Briefly: MMV: Percent motility assay at a compound concentration of 7.8e-7 M. Activity score legend: 3: Active, 2: Moderately active; 1: Inactive, 0: Toxic. As to conditions: at 0.78 µM.
For test [4], the system named is Onchocerca lienalis. As to the kind of experiment: MMV: Percent motility assay at a compound concentration of 1.25e-5 M. Activity score legend: 3: Active, 2: Moderately active; 1: Inactive, 0: Toxic. The conditions noted are these: at 12.5 µM.

Consider 43 compounds from ChEMBL document CHEMBL3137381, “MMV Box Onchocerca lienalis screening set”.

As to `COc1ccc2c(c1)C1(Nc3ccccc3-c3nc4ccccc4n31)C(=O)N2` (configuration not stated), the Motility in the test on Onchocerca lienalis [1], in the test on Onchocerca lienalis [2], in the test on Onchocerca lienalis [3] and with Onchocerca lienalis [4] was 100% throughout.

For `COc1cccc(Cn2c(Oc3ccccc3)nc3c2c(=O)n(C)c(=O)n3C)c1`, the Motility with Onchocerca lienalis [1], in the test with Onchocerca lienalis [2], with Onchocerca lienalis [3] and in the test on Onchocerca lienalis [4] was 100% throughout.

With `CCOc1c(Cl)cc(CNCC(O)c2ccccc2)cc1OC` (configuration not stated), the Motility in the test with Onchocerca lienalis [1], in the test on Onchocerca lienalis [2], in the test on Onchocerca lienalis [3] and with Onchocerca lienalis [4] was 100% each time.

Turning to `CCOc1ccccc1CN1CCc2nc3cc(C(C)(C)C)nn3c(O)c2C1`, the Motility in the test on Onchocerca lienalis [1], in the test on Onchocerca lienalis [2], in the test on Onchocerca lienalis [3] and in the test with Onchocerca lienalis [4] was 100% throughout.

For `Cc1cc(N2CCCC2)nc(Nc2ccc(NC(=O)CCc3ccccc3)cc2)n1`, the Motility with Onchocerca lienalis [1] was determined as 66.66%; in the test on Onchocerca lienalis [2], 100%; in the test on Onchocerca lienalis [3], 100%; in the test on Onchocerca lienalis [4], 13.33%.

As for `CN1CCN(c2ncnc3c2[nH]c2ccc(Cl)cc23)CC1`, the Motility with Onchocerca lienalis [1], in the test on Onchocerca lienalis [2], in the test on Onchocerca lienalis [3] and in the test with Onchocerca lienalis [4] was 100% each time.

Take `CC1(c2ccccc2)Nc2ccccc2-c2nc3ccccc3n21` (configuration not stated): the Motility in the test on Onchocerca lienalis [1], in the test with Onchocerca lienalis [2], in the test with Onchocerca lienalis [3] and with Onchocerca lienalis [4] was 100% each time.

For `O=C(Nc1ccc(Br)cc1)Nc1cccc(Cl)c1`, the Motility in the test on Onchocerca lienalis [1], with Onchocerca lienalis [2], in the test with Onchocerca lienalis [3] and with Onchocerca lienalis [4] was 100% each time.

Regarding `CN(C)CCNc1cc(-c2ccccc2)nc2ccccc12`, the Motility with Onchocerca lienalis [1], in the test with Onchocerca lienalis [2], in the test with Onchocerca lienalis [3] and in the test with Onchocerca lienalis [4] was 100% throughout.

Consider `COc1ccc2nc(C)cc(Nc3ccc(Cl)cc3)c2c1`, for which the Motility stood at 100% with Onchocerca lienalis [1], 100% with Onchocerca lienalis [2], 100% with Onchocerca lienalis [3] and 0% in the test with Onchocerca lienalis [4].

`COc1ccc2nc(C)cc(Nc3cccc(O)c3)c2c1.Cl`: the Motility with Onchocerca lienalis [1], in the test on Onchocerca lienalis [2], in the test on Onchocerca lienalis [3] and with Onchocerca lienalis [4] was 100% each time.

In the case of `CN(C)CCCNCc1ccc(-c2ccc(F)c(Cl)c2)o1.Cl`, the Motility in the test on Onchocerca lienalis [1], in the test on Onchocerca lienalis [2], with Onchocerca lienalis [3] and in the test with Onchocerca lienalis [4] was 100% in each case.

Take `O=c1nc(C=Cc2ccc(Br)cc2)oc2ccccc12`: the Motility in the test with Onchocerca lienalis [1], in the test with Onchocerca lienalis [2], in the test on Onchocerca lienalis [3] and in the test on Onchocerca lienalis [4] was 100% throughout.

Regarding `COc1ccc2nc(N)nc(C)c2c1`, the Motility with Onchocerca lienalis [1], in the test with Onchocerca lienalis [2], in the test with Onchocerca lienalis [3] and in the test on Onchocerca lienalis [4] was 100% throughout.

As for `Cc1sc2ncnc(Sc3nc4ccccc4[nH]3)c2c1C`, the Motility in the test on Onchocerca lienalis [1], with Onchocerca lienalis [2], with Onchocerca lienalis [3] and in the test with Onchocerca lienalis [4] was 100% each time.

Regarding `CCC(=O)Nc1nnc(Cc2ccc(OC)c(OC)c2)s1`, the Motility with Onchocerca lienalis [1], in the test with Onchocerca lienalis [2], in the test on Onchocerca lienalis [3] and with Onchocerca lienalis [4] was 100% each time.

For the compound `O=C(Nc1ccc(CN2CCOCC2)cc1)c1ccc(-c2cc(Cl)ccc2Cl)o1`, the Motility with Onchocerca lienalis [1], in the test with Onchocerca lienalis [2], with Onchocerca lienalis [3] and with Onchocerca lienalis [4] was 100% each time.

For the compound `Cc1cc(Nc2cccc(F)c2)nc(NCc2ccccc2)n1`, the Motility amounted to 100% in the test with Onchocerca lienalis [1], 100% in the test on Onchocerca lienalis [2], 100% in the test with Onchocerca lienalis [3] and 33.33% in the test with Onchocerca lienalis [4].

Turning to `COc1cccc(C(=O)Nc2ccc(-c3nc4ccccc4[nH]3)cc2)c1`, the Motility in the test on Onchocerca lienalis [1], with Onchocerca lienalis [2], with Onchocerca lienalis [3] and in the test on Onchocerca lienalis [4] was 100% throughout.

In the case of `COCCn1c(C)nc2ccccc2c1=O`, the Motility in the test with Onchocerca lienalis [1], in the test on Onchocerca lienalis [2], with Onchocerca lienalis [3] and in the test on Onchocerca lienalis [4] was 100% each time.

As to `O=C(Nc1cccc(-c2nc3ccccc3[nH]2)c1)c1cccc(NC(=O)c2ccco2)c1`, the Motility in the test on Onchocerca lienalis [1], with Onchocerca lienalis [2], with Onchocerca lienalis [3] and with Onchocerca lienalis [4] was 100% each time.

As to `O=C(NC1CCN(Cc2ccccc2)CC1)c1cc(-c2cccnc2)nc2ccc(Cl)cc12`, the Motility in the test with Onchocerca lienalis [1], in the test on Onchocerca lienalis [2], in the test with Onchocerca lienalis [3] and in the test on Onchocerca lienalis [4] was 100% throughout.

`CCOc1ccccc1NC(=O)CN1CCN(C(=O)c2ccco2)CC1`: the Motility in the test with Onchocerca lienalis [1], with Onchocerca lienalis [2], with Onchocerca lienalis [3] and in the test on Onchocerca lienalis [4] was 100% in each case.

With `COc1ccc(-c2nonc2NC(=O)c2cccc(Cl)c2)cc1OC`, the Motility with Onchocerca lienalis [1], with Onchocerca lienalis [2], in the test with Onchocerca lienalis [3] and in the test with Onchocerca lienalis [4] was 100% in each case.

Take `CCOc1cc2c(cc1OCC)C(c1cc(C)c(O)c(C)c1)NCC2.Cl` (configuration not stated): the Motility in the test on Onchocerca lienalis [1], in the test with Onchocerca lienalis [2], in the test on Onchocerca lienalis [3] and with Onchocerca lienalis [4] was 100% in each case.

Consider `O=C1CC(O)(C(F)(F)C(F)(F)F)Oc2ccccc21` (configuration not stated), for which the Motility in the test with Onchocerca lienalis [1], in the test on Onchocerca lienalis [2], in the test with Onchocerca lienalis [3] and with Onchocerca lienalis [4] was 100% each time.

For `CC(C)c1ccc(CNCC(O)c2ccccc2)cc1.Cl` (configuration not stated), the Motility with Onchocerca lienalis [1], in the test on Onchocerca lienalis [2], in the test on Onchocerca lienalis [3] and in the test with Onchocerca lienalis [4] was 100% each time.

Consider `CCOc1cc2c(cc1OCC)C(c1cc(Cl)c(O)c(OCC)c1)NCC2` (configuration not stated), for which the Motility in the test with Onchocerca lienalis [1], in the test on Onchocerca lienalis [2], with Onchocerca lienalis [3] and in the test with Onchocerca lienalis [4] was 100% in each case.

For `COc1ccc(N2CCN(C(CNC(=O)CC(C)(C)C)c3ccc4c(c3)OCO4)CC2)cc1` (configuration not stated), the Motility with Onchocerca lienalis [1], in the test with Onchocerca lienalis [2], in the test on Onchocerca lienalis [3] and with Onchocerca lienalis [4] was 100% each time.

On to `O=C(O)C(=O)O.Oc1ccc(Br)cc1CN1CCN(Cc2cccc(F)c2)CC1`, for which the Motility with Onchocerca lienalis [1], in the test with Onchocerca lienalis [2], with Onchocerca lienalis [3] and in the test on Onchocerca lienalis [4] was 100% each time.

As for `CN(C)c1ccc(N2C(N)=NC(N)=NC2(C)C)cc1`, the Motility in the test on Onchocerca lienalis [1], with Onchocerca lienalis [2], in the test with Onchocerca lienalis [3] and with Onchocerca lienalis [4] was 100% each time.

Take `COc1ccc(Nc2nc(NCc3ccccc3)c3ccccc3n2)cc1`: the Motility in the test on Onchocerca lienalis [1] is reported as 100%; in the test with Onchocerca lienalis [2], 100%; in the test on Onchocerca lienalis [3] it was 100%; in the test on Onchocerca lienalis [4], 33.33%.

On to `COc1cc2c(cc1OC)C1=NNC(=O)C1=NC(C)(C)C2`, for which the Motility in the test with Onchocerca lienalis [1], in the test with Onchocerca lienalis [2], with Onchocerca lienalis [3] and in the test on Onchocerca lienalis [4] was 100% each time.

Consider `Oc1c(CN2CCN(c3ccccc3F)CC2)cc(Br)c2cccnc12`, for which the Motility in the test with Onchocerca lienalis [1] is on record as 100%; in the test with Onchocerca lienalis [2], 100%; in the test on Onchocerca lienalis [3], 100%; in the test with Onchocerca lienalis [4], 66.66%.

With `Cl.OC(CNCc1ccccc1)Cn1c2ccccc2c2ccccc21` (configuration not stated), the Motility in the test on Onchocerca lienalis [1], in the test with Onchocerca lienalis [2], in the test on Onchocerca lienalis [3] and in the test on Onchocerca lienalis [4] was 100% in each case.

As to `CCCCc1c(C)nc2c(OC)cccc2c1O`, the Motility in the test on Onchocerca lienalis [1], with Onchocerca lienalis [2], in the test on Onchocerca lienalis [3] and in the test on Onchocerca lienalis [4] was 100% throughout.

Take `Clc1ccc2c(N3CCCC3)ccnc2c1`: the Motility in the test with Onchocerca lienalis [1], in the test with Onchocerca lienalis [2], in the test with Onchocerca lienalis [3] and in the test with Onchocerca lienalis [4] was 100% in each case.

As to `CCOC(=O)C1CCN(C(=O)CN2C(=O)c3ccccc3C2c2c[nH]c3ccccc23)CC1` (configuration not stated), the Motility in the test with Onchocerca lienalis [1], with Onchocerca lienalis [2], in the test on Onchocerca lienalis [3] and with Onchocerca lienalis [4] was 100% throughout.

`CCOc1ccc(CCNC(=O)c2cccs2)cc1OCC`: the Motility with Onchocerca lienalis [1], in the test on Onchocerca lienalis [2], in the test with Onchocerca lienalis [3] and with Onchocerca lienalis [4] was 100% throughout.

Regarding `COc1ccc(C(=O)C2CC2c2ccc(Cl)cc2)cc1` (configuration not stated), the Motility in the test with Onchocerca lienalis [1], with Onchocerca lienalis [2], with Onchocerca lienalis [3] and with Onchocerca lienalis [4] was 100% each time.

As to `O=c1c2c([nH]c3ccccc13)CCCC2`, the Motility in the test with Onchocerca lienalis [1], in the test with Onchocerca lienalis [2], in the test with Onchocerca lienalis [3] and in the test with Onchocerca lienalis [4] was 100% in each case.

As to `Cc1c(C)n(CC(O)CNC2CCCCC2C)c2ccccc12` (configuration not stated), the Motility in the test with Onchocerca lienalis [1], in the test on Onchocerca lienalis [2], with Onchocerca lienalis [3] and in the test on Onchocerca lienalis [4] was 100% throughout.

Take `CCCCN(CCCC)S(=O)(=O)c1ccc(NC(=O)c2ccco2)cc1`: the Motility in the test on Onchocerca lienalis [1], in the test on Onchocerca lienalis [2], with Onchocerca lienalis [3] and with Onchocerca lienalis [4] was 100% throughout.
